{"source": "patent US7655629B2", "about": "“Peptides and their use for the treatment of HIV infections” (priority 2002, dated 2010)", "note": "Positions of bridges follow the written chain, without caps; N, C: chain ends. Non-standard residues stand in square brackets, D forms with d. Residues, ends and D or L forms follow the SMILES beside them. Tic = O=C(O)[C@@H]1Cc2ccccc2CN1", "data": [{"system": "X4-tropic HIV-1 NL4-3", "details": "read-out: IC50 NL4-3; P4-CCR5 cells, HIV-1 NL4-3, peptide 2 h before infection, readout three days after infection", "excerpt": "These cells contain the β-galactosidase reporter gene under the control of the HIV-1 promoter. Thus, activation of the β-galactosidase reporter gene allows to measure the efficiency of HIV-1 infection and thus to quantitate the potency of HIV-1 inhibitors (Detheux M. et al., 2000; Journal of Experimental Medicine 192, 1501-1508; Münch et al., 2002; Antimicrobial Agents and Chemotherapy 46, 982-990).\nTo perform a typical infection assay, P4-CCR5 cells (Charneau et al., 1994; Journal of Molecular Biology 241, 651-662; Charneau et al., Virology. 1994 205, 247-53) were kept in RPMI 1640 medium supplemented with 10 volume % FCS. This cell line coexpresses CD4 and both HIV-1 coreceptors CCR5 and CXCR4 and contains the β-galactosidase gene under the control of the HIV-1 promoter. Virus stocks were generated by the calcium coprecipitation method as described (Detheux et al., J Exp Med. 192:1501-8; 2000), and the p24 antigen levels were quantitated with an HIV p24 ELISA kit obtained through the NIH AIDS Reagent Program. Cells were seeded in flat-bottomed 96-well dishes, cultured overnight, and incubated with the different doses of peptide for 2 h before infection with virus containing 1 ng of p24 antigen in a total volume of […] of medium. After overnight incubation, cells were washed twice and cultivated in fresh culture medium without inhibitory peptide. Three days after infection the cells were lysed, and infectivity was quantitated using the Galacto-Light Plus™ chemiluminescence reporter assay kit (Tropix, Bedford, Mass.) as recommended by the manufacturer. All infections were performed in quintuplicate.", "units": {"IC50": "nM"}, "values": [{"compound": "CC[C@H](C)[C@H](NC(=O)[C@H](C)NC(=O)[C@H](CCC(=O)O)NC(=O)[C@@H](N)CC(C)C)C(=O)N1CCC[C@H]1C(=O)N[C@@H](CCSC)C(=O)N[C@@H](CO)C(=O)N[C@@H](Cc1ccccc1)C(=O)N1CCC[C@H]1C(=O)N1CCC[C@@H]1C(=O)N[C@@H](CCC(=O)O)C(=O)N[C@@H](Cc1ccccc1)C(=O)N[C@@H](CC(C)C)C(=O)N[C@@H](Cc1ccccc1)C(=O)NCC(=O)N[C@@H](CCCCN)C(=O)N1CCC[C@H]1C(=O)N[C@@H](Cc1ccccc1)C(=O)N[C@H](C(=O)N[C@@H](Cc1ccccc1)C(=O)O)C(C)C", "note": "[VIR-400, LEAIPMSFPpEFLFGKPFVF] (H-LEAIPMSFP[dP]EFLFGKPFVF-OH)", "IC50": 590}, {"compound": "CC[C@H](C)[C@H](NC(=O)[C@@H]1CCCN1C(=O)[C@@H](NC(=O)[C@H](C)NC(=O)[C@H](CCC(=O)O)NC(=O)[C@@H](N)CC(C)C)[C@@H](C)CC)C(=O)N[C@@H](CO)C(=O)N[C@H](C(=O)N1CCC[C@H]1C(=O)N1CCC[C@@H]1C(=O)N[C@@H](CCC(=O)O)C(=O)N[C@H](C(=O)N[C@@H](C)C(=O)N[C@@H](Cc1ccccc1)C(=O)N[C@@H](CC(N)=O)C(=O)N[C@@H](CCCCN)C(=O)N1Cc2ccccc2C[C@H]1C(=O)N[C@@H](Cc1ccccc1)C(=O)N[C@H](C(=O)N[C@@H](Cc1ccccc1)C(=O)O)C(C)C)C(C)C)[C@@H](C)CC", "note": "[VIR-447, LEAIPISIPpEVAFNK(L-Tic)FVF] (H-LEAIPISIP[dP]EVAFNK[Tic]FVF-OH)", "IC50": 620}, {"compound": "H-LEAIPISIPPELAFAKPFVF-OH [VIR-286]", "IC50": 559}, {"compound": "CC[C@H](C)[C@H](NC(=O)[C@@H]1CCCN1C(=O)[C@@H](NC(=O)[C@H](CC(=O)O)NC(=O)[C@H](CCC(=O)O)NC(=O)[C@@H](N)CC(C)C)[C@@H](C)CC)C(=O)NCC(=O)N[C@H](C(=O)N1CCC[C@H]1C(=O)N1CCC[C@@H]1C(=O)N[C@@H](CCC(=O)O)C(=O)N[C@H](C(=O)N[C@@H](C)C(=O)N[C@@H](Cc1ccccc1)C(=O)N[C@@H](CC(N)=O)C(=O)N[C@@H](CCCCN)C(=O)N1Cc2ccccc2C[C@H]1C(=O)N[C@@H](Cc1ccccc1)C(=O)N[C@H](C(=O)N[C@@H](Cc1ccccc1)C(=O)O)C(C)C)C(C)C)[C@@H](C)CC", "note": "[VIR-488, LEDIPIGIPpEVAFNK(L-Tic)FVF] (H-LEDIPIGIP[dP]EVAFNK[Tic]FVF-OH)", "IC50": 415}, {"compound": "CC[C@H](C)[C@H](NC(=O)[C@H](C)NC(=O)[C@H](CCC(=O)O)NC(=O)[C@@H](N)CC(C)C)C(=O)N1CCC[C@H]1C(=O)N[C@H]1CSSC[C@@H](C(=O)N[C@@H](CC(C)C)C(=O)N[C@@H](C)C(=O)N[C@@H](Cc2ccccc2)C(=O)N[C@@H](C)C(=O)N[C@@H](CCCCN)C(=O)N2CCC[C@H]2C(=O)N[C@@H](Cc2ccccc2)C(=O)N[C@H](C(=O)N[C@@H](Cc2ccccc2)C(=O)O)C(C)C)NC(=O)[C@@H]2CCCN2C(=O)[C@@H]2CCCN2C(=O)[C@H]([C@@H](C)CC)NC(=O)[C@H](CO)NC1=O", "note": "[VIR-346] (H-LEAIPCSIPPCLAFAKPFVF-OH; disulfide 6-11)", "IC50": 541}, {"compound": "CC[C@H](C)[C@H](NC(=O)[C@H](CCCCN)NC(=O)[C@H](CCC(=O)O)NC(=O)[C@@H](N)CC(C)C)C(=O)N1CCC[C@H]1C(=O)N[C@@H](CCSC)C(=O)NCC(=O)N[C@H](C(=O)N1CCC[C@H]1C(=O)N1CCC[C@@H]1C(=O)N[C@@H](CCC(=O)O)C(=O)N[C@@H](Cc1ccccc1)C(=O)N[C@@H](CC(C)C)C(=O)N[C@@H](Cc1ccccc1)C(=O)NCC(=O)N[C@@H](CCCCN)C(=O)N1CCC[C@H]1C(=O)N[C@@H](Cc1ccccc1)C(=O)N[C@H](C(=O)N[C@@H](Cc1ccccc1)C(=O)O)C(C)C)[C@@H](C)CC", "note": "[VIR-418, LEKIPMGIPpEFLFGKPFVF] (H-LEKIPMGIP[dP]EFLFGKPFVF-OH)", "IC50": 500}, {"compound": "CC[C@H](C)[C@H](NC(=O)[C@@H]1CCCN1C(=O)[C@@H](NC(=O)[C@H](CC(=O)O)NC(=O)[C@H](CCC(=O)O)NC(=O)[C@@H](N)CC(C)C)[C@@H](C)CC)C(=O)NCC(=O)N[C@H](C(=O)N1CCC[C@H]1C(=O)N1CCC[C@@H]1C(=O)N[C@@H](CCC(=O)O)C(=O)N[C@H](C(=O)N1Cc2ccccc2C[C@H]1C(=O)N[C@@H](Cc1ccccc1)C(=O)N[C@@H](CC(N)=O)C(=O)N[C@@H](CCCCN)C(=O)N1CCC[C@H]1C(=O)N[C@@H](Cc1ccccc1)C(=O)N[C@H](C(=O)N[C@@H](Cc1ccccc1)C(=O)O)C(C)C)C(C)C)[C@@H](C)CC", "note": "[VIR-487, LEDIPIGIPpEV(L-Tic)FNKPFVF] (H-LEDIPIGIP[dP]EV[Tic]FNKPFVF-OH)", "IC50": 256}, {"compound": "CC[C@H](C)[C@H](NC(=O)[C@H](C)NC(=O)[C@H](CCC(=O)O)NC(=O)[C@@H](N)CC(C)C)C(=O)N1CCC[C@H]1C(=O)N[C@@H](CCSC)C(=O)N[C@@H](CO)C(=O)N[C@H](C(=O)N1CCC[C@H]1C(=O)N1CCC[C@@H]1C(=O)N[C@@H](CCC(=O)O)C(=O)N[C@@H](Cc1ccccc1)C(=O)N[C@@H](CC(C)C)C(=O)N[C@@H](Cc1ccccc1)C(=O)NCC(=O)N[C@@H](CCCCN)C(=O)N1CCC[C@H]1C(=O)N[C@@H](C)C(=O)N[C@@H](Cc1ccccc1)C(=O)N[C@H](C(=O)N[C@@H](Cc1ccccc1)C(=O)O)C(C)C)[C@@H](C)CC", "note": "[VIR-376, LEAIPMSIPpEFLFGKPAFVF] (H-LEAIPMSIP[dP]EFLFGKPAFVF-OH)", "IC50": 568}, {"compound": "CC[C@H](C)[C@H](NC(=O)[C@H](CC(=O)O)NC(=O)[C@H](CCC(=O)O)NC(=O)[C@@H](N)CC(C)C)C(=O)N1CCC[C@H]1C(=O)N[C@@H](CCSC)C(=O)NCC(=O)N[C@H](C(=O)N1CCC[C@H]1C(=O)N1CCC[C@@H]1C(=O)N[C@@H](CCC(=O)O)C(=O)N[C@H](C(=O)N[C@@H](C)C(=O)N[C@@H](Cc1ccccc1)C(=O)N[C@@H](CC(N)=O)C(=O)N[C@@H](CCCCN)C(=O)N1CCC[C@H]1C(=O)N[C@@H](Cc1ccccc1)C(=O)N[C@H](C(=O)N[C@@H](Cc1ccccc1)C(=O)O)C(C)C)C(C)C)[C@@H](C)CC", "note": "[VIR-326, LEDIPMGIPpEVAFNKPFVF] (H-LEDIPMGIP[dP]EVAFNKPFVF-OH)", "IC50": 963}, {"compound": "CC[C@H](C)[C@H](NC(=O)[C@H](CC(=O)O)NC(=O)[C@H](CCC(=O)O)NC(=O)[C@@H](N)CC(C)C)C(=O)N1CCC[C@H]1C(=O)N[C@@H](CCSC)C(=O)N[C@@H](CO)C(=O)N[C@H](C(=O)N1CCC[C@H]1C(=O)N1CCC[C@@H]1C(=O)N[C@@H](CCC(=O)O)C(=O)N[C@H](C(=O)N1Cc2ccccc2C[C@H]1C(=O)N[C@@H](Cc1ccccc1)C(=O)N[C@@H](CC(N)=O)C(=O)N[C@@H](CCCCN)C(=O)N1CCC[C@H]1C(=O)N[C@@H](Cc1ccccc1)C(=O)N[C@H](C(=O)N[C@@H](Cc1ccccc1)C(=O)O)C(C)C)C(C)C)[C@@H](C)CC", "note": "[VIR-452, LEDIPMSIPpEV(L-Tic)FNKPFVF] (H-LEDIPMSIP[dP]EV[Tic]FNKPFVF-OH)", "IC50": 184}, {"compound": "CC[C@H](C)[C@H](NC(=O)[C@H](C)NC(=O)[C@H](CCC(=O)O)NC(=O)[C@@H](N)CC(C)C)C(=O)N1CCC[C@H]1C(=O)N[C@H]1CSSC[C@@H](C(=O)N[C@H](C(=O)N[C@@H](C)C(=O)N[C@@H](Cc2ccccc2)C(=O)N[C@@H](CC(N)=O)C(=O)N[C@@H](CCCCN)C(=O)N2CCC[C@H]2C(=O)N[C@@H](Cc2ccccc2)C(=O)N[C@H](C(=O)N[C@@H](Cc2ccccc2)C(=O)O)C(C)C)C(C)C)NC(=O)[C@H]2CCCN2C(=O)[C@@H]2CCCN2C(=O)[C@H]([C@@H](C)CC)NC(=O)CNC1=O", "note": "[VIR-355, LEAIPCGIPpCVAFNKPFVF] (H-LEAIPCGIP[dP]CVAFNKPFVF-OH; disulfide 6-11)", "IC50": 582}, {"compound": "CC[C@H](C)[C@H](NC(=O)[C@H](C)NC(=O)[C@H](CCC(=O)O)NC(=O)[C@@H](N)CC(C)C)C(=O)N1CCC[C@H]1C(=O)N[C@@H](CCSC)C(=O)NCC(=O)N[C@H](C(=O)N1CCC[C@H]1C(=O)N1CCC[C@@H]1C(=O)N[C@@H](CCC(=O)O)C(=O)N[C@@H](Cc1ccccc1)C(=O)N[C@@H](CC(C)C)C(=O)N[C@@H](Cc1ccccc1)C(=O)NCC(=O)N[C@@H](CCCCN)C(=O)N1CCC[C@H]1C(=O)N[C@@H](Cc1ccccc1)C(=O)N[C@H](C(=O)N[C@@H](Cc1ccccc1)C(=O)O)C(C)C)[C@@H](C)CC", "note": "[VIR-416, LEAIPMGIPpEFLFGKPFVF] (H-LEAIPMGIP[dP]EFLFGKPFVF-OH)", "IC50": 369}, {"compound": "CC[C@H](C)[C@H](NC(=O)[C@H](C)NC(=O)[C@H](CCC(=O)O)NC(=O)[C@@H](N)CC(C)C)C(=O)N1CCC[C@H]1C(=O)N[C@H]1CSSC[C@@H](C(=O)N[C@@H](CC(C)C)C(=O)N[C@@H](Cc2ccccc2)C(=O)NCC(=O)N[C@@H](CCCCN)C(=O)N2CCC[C@H]2C(=O)N[C@@H](Cc2ccccc2)C(=O)N[C@H](C(=O)N[C@@H](Cc2ccccc2)C(=O)O)C(C)C)NC(=O)[C@H](CCC(=O)O)NC(=O)[C@@H]2CCCN2C(=O)[C@@H]2CCCN2C(=O)[C@H]([C@@H](C)CC)NC(=O)[C@H](CO)NC1=O", "note": "[VIR-570] (H-LEAIPCSIPPECLFGKPFVF-OH; disulfide 6-12)", "IC50": 231}]}]}
